Measured values from ChEMBL document CHEMBL1201862, “PubChem BioAssay data set” (2004).
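Assay format: 96-well plates, 48-hour exposure. The concentration for 50% growth inhibition is given as GI50.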 Active and inactive are the calls of the source. Rule as the data show it: active = GI50 up to about 1.1 µM and inactive = higher.

Assays:
Experiment in all cases: inhibition of tumour cell growth, NCI panel, 48 h
[1] = system: CAKI-1
[2] = system: IGROV-1
[3] = system: NCI-H23
[4] = system: SK-OV-3
[5] = system: M14
[6] = system: DU-145
[7] = system: Hs-578T
[8] = system: HCT-15
[9] = system: HT-29
[10] = system: SK-MEL-28
[11] = system: TK-10
[12] = system: MOLT-4
[13] = system: SF-295
[14] = system: NCI-H522
[15] = system: NCI-H226
[16] = system: A498
[17] = system: OVCAR-5
[18] = system: HL-60
[19] = system: SN12C
[20] = system: SW-620
[21] = system: HOP-92
[22] = system: SK-MEL-2
[23] = system: HOP-62
[24] = system: NCI-H460
[25] = system: A549
[26] = system: OVCAR-8
[27] = system: U-251
[28] = system: HCC 2998
[29] = system: OVCAR-3
[30] = system: HCT-116
[31] = system: SK-MEL-5
[32] = system: KM12
[33] = system: NCI/ADR-RES
[34] = system: CCRF-CEM
[35] = system: SF-539
[36] = system: UO-31
[37] = system: UACC-62
[38] = system: SF-268
[39] = system: LOX IMVI
[40] = system: RXF 393
[41] = system: SR
[42] = system: EKVX
[43] = system: PC-3
[44] = system: 786-0
[45] = system: OVCAR-4
[46] = system: T47D
[47] = system: MDA-MB-435
[48] = system: MDA-MB-231
[49] = system: K562
[50] = system: BT-549
[51] = system: MCF7
[52] = system: UACC-257
[53] = system: ACHN
[54] = system: COLO 205
[55] = system: SNB-19

With `CN1C(NCCO)=NS(=O)(=O)c2ccccc21` the GI50 [1] was > 100 µM (inactive), the GI50 [2] was > 100 µM (inactive) and the GI50 [3] was > 100 µM (inactive). The GI50 [4] was > 100 µM (inactive), the GI50 [5] was > 100 µM (inactive) and the GI50 [6] was > 100 µM (inactive). The GI50 [7] was > 100 µM (inactive), the GI50 [8] was over 100 µM and the GI50 [9] was > 100 µM (inactive). The GI50 [10] was > 100 µM (inactive), the GI50 [11] was > 100 µM (inactive) and the GI50 [12] was > 100 µM (inactive). For the same compound, the GI50 [13] was > 100 µM (inactive), the GI50 [14] was > 100 µM (inactive) and the GI50 [15] was > 100 µM (inactive). For the same compound, the GI50 [16] was > 100 µM (inactive), the GI50 [17] was > 100 µM (inactive) and the GI50 [18] was > 100 µM (inactive). The GI50 [19] was > 100 µM (inactive), the GI50 [20] was > 100 µM (inactive) and the GI50 [21] was > 100 µM (inactive). The GI50 [22] was > 100 µM (inactive), the GI50 [23] was > 100 µM (inactive) and the GI50 [24] was > 100 µM (inactive). For the same compound, the GI50 [25] was > 100 µM (inactive), the GI50 [26] was > 100 µM (inactive) and the GI50 [27] was > 100 µM (inactive). For the same compound, the GI50 [28] was > 100 µM (inactive), the GI50 [29] was > 100 µM (inactive) and the GI50 [30] was > 100 µM (inactive). The GI50 [31] was > 100 µM (inactive), the GI50 [32] was > 100 µM (inactive) and the GI50 [33] was > 100 µM (inactive). The GI50 [34] was > 100 µM (inactive), the GI50 [35] was > 100 µM (inactive) and the GI50 [36] was > 100 µM (inactive). The GI50 [37] was > 100 µM (inactive), the GI50 [38] was > 100 µM (inactive) and the GI50 [39] was > 100 µM (inactive). The GI50 [40] was > 100 µM (inactive), the GI50 [41] was 8.75 µM (inactive) and the GI50 [42] was > 100 µM (inactive). The GI50 [43] was > 100 µM (inactive), the GI50 [44] was > 100 µM (inactive) and the GI50 [45] was > 100 µM (inactive). The GI50 [46] was > 100 µM (inactive), the GI50 [47] was > 100 µM (inactive) and the GI50 [48] was > 100 µM (inactive). The GI50 [49] was > 100 µM (inactive), the GI50 [50] was > 100 µM (inactive) and the GI50 [51] was > 100 µM (inactive). For the same compound, the GI50 [52] was > 100 µM (inactive), the GI50 [53] was > 100 µM (inactive) and the GI50 [54] was > 100 µM (inactive). The GI50 [55] was > 100 µM (inactive).
